Assay results: the supplement of paper PMC8612539
Converted amounts (≈) assume the structure as drawn.

Test system: Histophilus somni
Experiment: minimum inhibitory concentration (MIC)
Description: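 Broth microdilution MIC (Sensititre BOPO7F bovine plate, CLSI methods) of 19 antimicrobials against field isolates of P. multocida, M. haemolytica, H. somni (deep nasopharyngeal swabs) and E. coli, Enterococcus spp. (rectal swabs) from weaned dairy heifers. Incubation 16-24 h at 35 C. MIC is the lowest concentration preventing visible growth. Values with <= or > lie at the tested range limits. Trimethoprim-sulfamethoxazole is given as the trimethoprim component of a 1:19 mixture.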

CC[C@H]1OC(=O)C[C@@H](O)[C@H](C)[C@@H](O[C@@H]2O[C@H](C)[C@@H](O)[C@H](N(C)C)[C@H]2O)[C@@H](CCN2C[C@H](C)C[C@H](C)C2)C[C@@H](C)C(=O)/C=C/C(C)=C/[C@@H]1CO[C@@H]1O[C@H](C)[C@@H](O)[C@@H](OC)[C@H]1OC [Tilmicosin]
Conditions | minimum inhibitory concentration [µg/mL]
isolate (source animal id): 3 | 8 (≈ 9.2 µM)
isolate (source animal id): 4 | ≤ 2
isolate (source animal id): 7 | ≤ 2
isolate (source animal id): 14 | ≤ 2
isolate (source animal id): 15 | 8 (≈ 9.2 µM)
isolate (source animal id): 17 | ≤ 2
isolate (source animal id): 18 | 4 (≈ 4.6 µM)
isolate (source animal id): 20 | ≤ 2
isolate (source animal id): 23 | 4 (≈ 4.6 µM)
isolate (source animal id): 45 | 8 (≈ 9.2 µM)
isolate (source animal id): 53 | 8 (≈ 9.2 µM)
isolate (source animal id): 83 | 4 (≈ 4.6 µM)
isolate (source animal id): 88 | 4 (≈ 4.6 µM)
isolate (source animal id): 92 | 8 (≈ 9.2 µM)
isolate (source animal id): 93 | 4 (≈ 4.6 µM)
isolate (source animal id): 99 | 4 (≈ 4.6 µM)
isolate (source animal id): 100 | 8 (≈ 9.2 µM)
isolate (source animal id): 105 | 4 (≈ 4.6 µM)
isolate (source animal id): 107 | 4 (≈ 4.6 µM)
isolate (source animal id): 108 | 4 (≈ 4.6 µM)
isolate (source animal id): 109 | 8 (≈ 9.2 µM)
isolate (source animal id): 110 | 8 (≈ 9.2 µM)
isolate (source animal id): 117 | 4 (≈ 4.6 µM)
isolate (source animal id): 121 | 4 (≈ 4.6 µM)
isolate (source animal id): 123 | 8 (≈ 9.2 µM)
isolate (source animal id): 124 | 4 (≈ 4.6 µM)
isolate (source animal id): 127 | 4 (≈ 4.6 µM)
isolate (source animal id): 128 | 4 (≈ 4.6 µM)
isolate (source animal id): 130 | 8 (≈ 9.2 µM)
isolate (source animal id): 132 | 4 (≈ 4.6 µM)
isolate (source animal id): 135 | 4 (≈ 4.6 µM)
isolate (source animal id): 140 | 4 (≈ 4.6 µM)
isolate (source animal id): 141 | 4 (≈ 4.6 µM)
isolate (source animal id): 142 | > 16
isolate (source animal id): 144 | 8 (≈ 9.2 µM)
isolate (source animal id): 146 | 8 (≈ 9.2 µM)
isolate (source animal id): 147 | > 16
isolate (source animal id): 151 | 4 (≈ 4.6 µM)
isolate (source animal id): 153 | 16 (≈ 18.4 µM)
isolate (source animal id): 154 | > 16
isolate (source animal id): 156 | > 16
isolate (source animal id): 157 | 16 (≈ 18.4 µM)
isolate (source animal id): 176 | 16 (≈ 18.4 µM)
isolate (source animal id): 183 | 8 (≈ 9.2 µM)
isolate (source animal id): 186 | 8 (≈ 9.2 µM)
isolate (source animal id): 196 | 8 (≈ 9.2 µM)
isolate (source animal id): 198 | 8 (≈ 9.2 µM)
isolate (source animal id): 200 | 8 (≈ 9.2 µM)
isolate (source animal id): 206 | 8 (≈ 9.2 µM)
isolate (source animal id): 208 | 8 (≈ 9.2 µM)
isolate (source animal id): 210 | 4 (≈ 4.6 µM)
isolate (source animal id): 212 | ≤ 2
isolate (source animal id): 215 | 8 (≈ 9.2 µM)
isolate (source animal id): 216 | 16 (≈ 18.4 µM)
isolate (source animal id): 218 | 8 (≈ 9.2 µM)
isolate (source animal id): 219 | 8 (≈ 9.2 µM)
isolate (source animal id): 224 | 8 (≈ 9.2 µM)
isolate (source animal id): 228 | 8 (≈ 9.2 µM)
isolate (source animal id): 230 | 16 (≈ 18.4 µM)
isolate (source animal id): 233 | 4 (≈ 4.6 µM)
isolate (source animal id): 238 | ≤ 2
isolate (source animal id): 239 | 8 (≈ 9.2 µM)
isolate (source animal id): 241 | 8 (≈ 9.2 µM)
isolate (source animal id): 242 | 8 (≈ 9.2 µM)
isolate (source animal id): 243 | 8 (≈ 9.2 µM)
isolate (source animal id): 245 | ≤ 2
isolate (source animal id): 246 | 8 (≈ 9.2 µM)
isolate (source animal id): 247 | 16 (≈ 18.4 µM)
isolate (source animal id): 248 | ≤ 2
isolate (source animal id): 250 | 8 (≈ 9.2 µM)
isolate (source animal id): 251 | 8 (≈ 9.2 µM)
isolate (source animal id): 252 | 16 (≈ 18.4 µM)
isolate (source animal id): 254 | 8 (≈ 9.2 µM)
isolate (source animal id): 258 | 4 (≈ 4.6 µM)
isolate (source animal id): 259 | 4 (≈ 4.6 µM)
isolate (source animal id): 262 | ≤ 2
isolate (source animal id): 264 | ≤ 2
isolate (source animal id): 265 | ≤ 2
isolate (source animal id): 266 | 4 (≈ 4.6 µM)
isolate (source animal id): 267 | 4 (≈ 4.6 µM)
isolate (source animal id): 269 | 4 (≈ 4.6 µM)
isolate (source animal id): 271 | 4 (≈ 4.6 µM)
isolate (source animal id): 272 | ≤ 2
isolate (source animal id): 274 | ≤ 2
isolate (source animal id): 276 | ≤ 2
isolate (source animal id): 278 | ≤ 2
isolate (source animal id): 280 | ≤ 2
isolate (source animal id): 281 | 8 (≈ 9.2 µM)
isolate (source animal id): 283 | 4 (≈ 4.6 µM)
isolate (source animal id): 288 | 8 (≈ 9.2 µM)
isolate (source animal id): 291 | 4 (≈ 4.6 µM)
isolate (source animal id): 292 | 8 (≈ 9.2 µM)
isolate (source animal id): 296 | 4 (≈ 4.6 µM)
isolate (source animal id): 306 | 8 (≈ 9.2 µM)
isolate (source animal id): 336 | 8 (≈ 9.2 µM)
isolate (source animal id): 337 | 8 (≈ 9.2 µM)
isolate (source animal id): 341 | 8 (≈ 9.2 µM)

CN1C[C@@H]2C[C@H]1CN2c1cc2c(cc1F)c(=O)c(C(=O)O)cn2C1CC1 [Danofloxacin]
Conditions | minimum inhibitory concentration [µg/mL]
isolate (source animal id): 3 | ≤ 0.12
isolate (source animal id): 4 | ≤ 0.12
isolate (source animal id): 7 | ≤ 0.12
isolate (source animal id): 14 | ≤ 0.12
isolate (source animal id): 15 | ≤ 0.12
isolate (source animal id): 17 | ≤ 0.12
isolate (source animal id): 18 | ≤ 0.12
isolate (source animal id): 20 | ≤ 0.12
isolate (source animal id): 23 | ≤ 0.12
isolate (source animal id): 45 | ≤ 0.12
isolate (source animal id): 53 | ≤ 0.12
isolate (source animal id): 83 | ≤ 0.12
isolate (source animal id): 88 | ≤ 0.12
isolate (source animal id): 92 | ≤ 0.12
isolate (source animal id): 93 | ≤ 0.12
isolate (source animal id): 99 | ≤ 0.12
isolate (source animal id): 100 | ≤ 0.12
isolate (source animal id): 105 | ≤ 0.12
isolate (source animal id): 107 | ≤ 0.12
isolate (source animal id): 108 | ≤ 0.12
isolate (source animal id): 109 | ≤ 0.12
isolate (source animal id): 110 | ≤ 0.12
isolate (source animal id): 117 | ≤ 0.12
isolate (source animal id): 121 | ≤ 0.12
isolate (source animal id): 123 | ≤ 0.12
isolate (source animal id): 124 | ≤ 0.12
isolate (source animal id): 127 | ≤ 0.12
isolate (source animal id): 128 | ≤ 0.12
isolate (source animal id): 130 | ≤ 0.12
isolate (source animal id): 132 | ≤ 0.12
isolate (source animal id): 135 | ≤ 0.12
isolate (source animal id): 140 | ≤ 0.12
isolate (source animal id): 141 | ≤ 0.12
isolate (source animal id): 142 | ≤ 0.12
isolate (source animal id): 144 | ≤ 0.12
isolate (source animal id): 146 | ≤ 0.12
isolate (source animal id): 147 | ≤ 0.12
isolate (source animal id): 151 | ≤ 0.12
isolate (source animal id): 153 | ≤ 0.12
isolate (source animal id): 154 | ≤ 0.12
isolate (source animal id): 156 | ≤ 0.12
isolate (source animal id): 157 | ≤ 0.12
isolate (source animal id): 176 | ≤ 0.12
isolate (source animal id): 183 | ≤ 0.12
isolate (source animal id): 186 | ≤ 0.12
isolate (source animal id): 196 | ≤ 0.12
isolate (source animal id): 198 | ≤ 0.12
isolate (source animal id): 200 | ≤ 0.12
isolate (source animal id): 206 | ≤ 0.12
isolate (source animal id): 208 | ≤ 0.12
isolate (source animal id): 210 | ≤ 0.12
isolate (source animal id): 212 | ≤ 0.12
isolate (source animal id): 215 | ≤ 0.12
isolate (source animal id): 216 | ≤ 0.12
isolate (source animal id): 218 | ≤ 0.12
isolate (source animal id): 219 | ≤ 0.12
isolate (source animal id): 224 | ≤ 0.12
isolate (source animal id): 228 | ≤ 0.12
isolate (source animal id): 230 | ≤ 0.12
isolate (source animal id): 233 | ≤ 0.12
isolate (source animal id): 238 | ≤ 0.12
isolate (source animal id): 239 | ≤ 0.12
isolate (source animal id): 241 | ≤ 0.12
isolate (source animal id): 242 | ≤ 0.12
isolate (source animal id): 243 | ≤ 0.12
isolate (source animal id): 245 | ≤ 0.12
isolate (source animal id): 246 | ≤ 0.12
isolate (source animal id): 247 | ≤ 0.12
isolate (source animal id): 248 | ≤ 0.12
isolate (source animal id): 250 | ≤ 0.12
isolate (source animal id): 251 | ≤ 0.12
isolate (source animal id): 252 | ≤ 0.12
isolate (source animal id): 254 | ≤ 0.12
isolate (source animal id): 258 | ≤ 0.12
isolate (source animal id): 259 | ≤ 0.12
isolate (source animal id): 262 | ≤ 0.12
isolate (source animal id): 264 | ≤ 0.12
isolate (source animal id): 265 | ≤ 0.12
isolate (source animal id): 266 | ≤ 0.12
isolate (source animal id): 267 | ≤ 0.12
isolate (source animal id): 269 | ≤ 0.12
isolate (source animal id): 271 | ≤ 0.12
isolate (source animal id): 272 | ≤ 0.12
isolate (source animal id): 274 | ≤ 0.12
isolate (source animal id): 276 | ≤ 0.12
isolate (source animal id): 278 | ≤ 0.12
isolate (source animal id): 280 | ≤ 0.12
isolate (source animal id): 281 | ≤ 0.12
isolate (source animal id): 283 | ≤ 0.12
isolate (source animal id): 288 | ≤ 0.12
isolate (source animal id): 291 | ≤ 0.12
isolate (source animal id): 292 | ≤ 0.12
isolate (source animal id): 296 | ≤ 0.12
isolate (source animal id): 306 | ≤ 0.12
isolate (source animal id): 336 | ≤ 0.12
isolate (source animal id): 337 | ≤ 0.12
isolate (source animal id): 341 | ≤ 0.12
